The subject of one data set is MCF7. Nature of the data set: Cytotoxicity against human breast cancer MCF7 cell line expressing ER. It counts as functional, cell-based.
The subject of the next data set is MDA-MB-231. Nature of the data set: Cytotoxicity against human breast cancer MDA-MB-231 cell line lacking ER. It counts as functional, cell-based.
Data set [1] is described as follows: Cell survival against human breast cancer MCF7 cell line after 72h at 10 uM. It counts as ADME, cell-based. Particulars: MCF7 breast cancer cells, read-out: Activity.
The nature of data set [2]: Cell survival against human breast cancer MDA-MB-231 cell line after 72h at 10 uM. It counts as ADME, cell-based. Particulars: MDA-MB-231 breast cancer cells, read-out: Activity.

As for `C[C@]12CC[C@@H]3c4ccc(O)cc4CC[C@H]3[C@@H]1CC[C@@]2(O)C#Cc1nc2c(N)ncnc2n1[C@H]1O[C@@H](CO)[C@H](O)[C@@H]1O`, the Activity result in the data set on MCF7 and in the data set on MDA-MB-231 was “Not toxic” throughout.

As for `C[C@]12CC[C@@H]3c4ccc(O)cc4CC[C@H]3[C@@H]1CC[C@@]2(O)C#Cc1cnc(O)nc1O`, the Activity result with MCF7 and in the data set on MDA-MB-231 was “Not toxic” in each case.

Turning to `Cn1cc(C#CCCCCC#C[C@]2(O)CC[C@H]3[C@@H]4CCc5cc(O)ccc5[C@H]4CC[C@@]32C)c(=O)n(C)c1=O`, the Activity result in the data set on MCF7 and in the data set on MDA-MB-231 was “Not toxic” in each case.

For the molecule `CC/C(=C(\c1ccccc1)c1ccc(OCCN(C)C)cc1)c1ccccc1` [TAMOXIFEN], in data set [1], the viability at 72 h, 10 µM was 72%.

Turning to `O=c1[nH]cc(F)c(=O)[nH]1` [FLUOROURACIL], the viability at 72 h, 10 µM in data set [2] turned out to be 67%; in data set [1], 40%.

As for `C[C@]12CC[C@@H]3c4ccc(O)cc4CC[C@H]3[C@@H]1CC[C@@H]2O`, the Activity entry in the data set on MCF7 and in the data set on MDA-MB-231 was “Not toxic” in each case.

Consider `C[C@]12CC[C@@H]3c4ccc(O)cc4CC[C@H]3[C@@H]1CC[C@@]2(O)C#CCCCCC#Cc1cnc(O)nc1O`, for which the Activity entry in the data set with MCF7 and with MDA-MB-231 was “Not toxic” each time.

With `Cn1cc(C#C[C@]2(O)CC[C@H]3[C@@H]4CCc5cc(O)ccc5[C@H]4CC[C@@]32C)c(=O)n(C)c1=O`, the Activity entry in the data set on MCF7 and in the data set on MDA-MB-231 was “Not toxic” each time.

On to `C[C@]12CC[C@@H]3c4ccc(O)cc4CC[C@H]3[C@@H]1CC[C@@]2(O)C#Cc1cn([C@H]2C[C@H](O)[C@@H](CO)O2)c(=O)[nH]c1=O`, for which the Activity result in the data set with MCF7 and with MDA-MB-231 was “Not toxic” throughout.

For the molecule `C[C@]12CC[C@@H]3c4ccc(O)cc4CC[C@H]3[C@@H]1CC[C@@]2(O)C#CCCCCC#Cc1cn([C@H]2C[C@H](O)[C@@H](CO)O2)c(=O)[nH]c1=O`, the Activity result in the data set with MCF7 and in the data set with MDA-MB-231 was “Not toxic” in each case.

Regarding `C[C@]12CC[C@@H]3c4ccc(O)cc4CC[C@H]3[C@@H]1CC[C@@]2(O)C#CCCCCC#Cc1cn([C@@H]2O[C@H](CO)[C@@H](O)[C@H]2O)c(=O)[nH]c1=O`, the Activity result in the data set on MCF7 and in the data set on MDA-MB-231 was “Not toxic” in each case.

The values above are taken from ChEMBL document CHEMBL1147763, “Synthesis and biological activities of nucleoside-estradiol conjugates” (Bioorg Med Chem Lett, 2006).
